Source: patent US11752155B2, “Treatment of autism spectrum disorders, obsessive-compulsive disorder and anxiety disorders” (Rugen Holdings (Cayman) Limited, priority 2016, dated 2023)
Counter-ions that a name gives are not always drawn. Like-named read-outs stand apart in the source and are kept apart here. Blank lines part the entries; values can stand above or below the compound they belong to.

What was measured:
hERG channel = hERG channel (Homo sapiens (Human), UniProt Q12809); assay: hERG channel inhibition, whole cell patch clamp in HEK293 cells; format: cell-based; details: for IC50: Table 1.3B
CYP2D6 = CYP2D6 (Homo sapiens (Human), UniProt P10635); assay: CYP P450 enzyme inhibition in pooled human liver microsomes (dextromethorphan probe); format: in vitro ADME; details: Table 1.4B
Experimental: Test compound concentration-dependent response studies were performed in triplicate.

[1] = tested on: wild type mice (male NMRI); assay: Marble Burying Test in wild type mice; format: in vivo, mouse; details: Mus musculus, ip, read-out: Percent Change in marbles buried relative to vehicle
Experimental: Animals. Male NMRI mice (20-30 g body weight) were obtained from Janvier Labs (Le Genest-Saint Isle, France) and allowed to acclimate to the animal facility for at least 5 days. Twelve mice were studied per treatment group.
Compound formulation. The test compounds were prepared in a vehicle of 0.5% DMSO and 4% HP-β-CD, and administered orally (PO) or IP. The test compounds or vehicle were administered 20 minutes before the behavioral test described below. Clobazam (8 mg/kg IP), administered 30 minutes before the test, was used as the positive reference compound.
Clobazam was dispersed in 0.2% hydroxypropylmethylcellulose (HPMC) in physiological saline. Dosing volume was 10 mL/kg.
Testing procedure. The Marble Burying Test was conducted as previously described by Broekkamp et al. (Eur. J. Pharmacol. 1986, 126:223-229). Mice exposed to small novel objects (marbles) will bury them in the sawdust floor covering. Anxiolytics decrease the number of marbles buried at non-sedating doses. Mice were individually placed in transparent plastic cages (33×21×18 cm) with 5 cm of sawdust on the floor and 25 marbles grouped in the center of the cage. The cage was covered with an inverted plastic cage. Each test cage, together with the marbles, was impregnated with mouse odor before-hand by leaving 10 mice in the cage for 15 minutes. These mice then played no further role in the experiment. The number of marbles covered by sawdust (⅔ or more) was counted at the end of the 30-minute test. The test was performed blind (compounds versus vehicle).
Statistical analyses. Data were analyzed by comparing test compound-treated groups with the vehicle control group using the Kruskal-Wallis test followed by post-hoc Mann-Whitney U tests. Data comparing the reference compound with the vehicle were analyzed using the Mann-Whitney U test. A p value<0.05 was considered significant.

human NR1/NR2B = human NR1/NR2B (Homo sapiens (Human), UniProt Q05586+Q13224); assay: NR2B antagonist activity: calcium influx (Fluo-4) assay in HEK293 cells; format: cell-based
Experimental: Activation of the NR2A or NR2B subtype of NMDA receptor with glutamate as an agonist and glycine co-agonist on these cells results in calcium influx, which can be monitored with fluorescent indicator Fluo-4.
For experiments, the cells were seeded onto poly-D-lysine-coated 96-well black plates with clear bottom (Corning) at a density of ˜50,000 cells/well. After overnight culture, the growth medium was removed from the wells and the cells were incubated at 37° C. for 60 minutes in Hanks buffer containing 4 μM fluo-4-AM (Invitrogen) and 0.1% bovine serum albumin (BSA). After dye-loading, the cells were washed three times with Hanks buffer and incubated for 10 minutes at room temperature with various concentrations of test compounds prepared in Hanks buffer with 0.1% BSA. The cell plates were placed onto an FDSS Cell fluorescence reader (Hamamatsu). After 20 seconds of reading background fluorescence, agonist glutamate at final 100 µM and co-agonist glycine at final 50 μM were added to the cells to activate the receptor, and the resulting fluorescence changes were recorded and quantified. Based on the changes in fluorescence intensity, the pharmacological effect of test compounds was analyzed and the IC50 values derived from a non-linear least squares fitting of the concentration-dependent response to a standard logistic equation using Prism (Graphpad Software, Inc.): Amplitude=Max Amplitude/(1+(IC50/[antagonist])^n).

[2] = biological target: native rat brain NR2B receptors (Rattus norvegicus (Rat), UniProt P35439+Q00960); assay: NR2B radioligand binding assay in rat brain using [3H] (E)-N1-(2-methoxybenzyl)-cinnamidine
Experimental: This example describes an NR2B receptor binding assay in rat brain using [^3H] […] The binding assay method was adapted from a previously described cellular human NR1a/NR2B cloned receptor assay (Kiss et al. Neurochem. Internatl. 2005, 46:453-464) to rat brain tissue. This assay serves as a selective measure of NR2B receptor binding activity in native rat brain receptors. Briefly, the brains of male Wistar rats were homogenized (Polytron) before centrifugation at 40,000×g for 15 minutes at 4° C. After 2 washes, the final pellet was homogenized and stored at −80° C. The protein concentration was determined by Bradford assay. [^3H] […] Non-specific binding was assessed in the presence of excess (10 μM) (E)-N1-(2-nethoxybenzyl)-cinnamidine.
Test compounds were solubilized at 10 mM in DMSO. Then the dilutions were performed with a constant solvent concentration (1% DMSO) in the assay. After incubation for 4.5 hours at room temperature, the assays were filtered on GF/3 filters pretreated with 0.3% (v/v) polyethylenimine (PEI) with a Packard system. The experiment was performed in duplicate (n=2).

[3] = tested on: wild type mice (male C57Bl/6); assay: Novelty Phobia Test in wild type mice; format: in vivo, mouse
Experimental: Animals. Male C57Bl/6 mice (18-30 g body weight; 6-8 weeks of age) were obtained from Slaccas (Shanghai, China) and allowed to acclimate to the animal facility for 7 days. Mice were group housed in plastic cages (no more than 4 animals per cage) on wood shavings with nesting material. All animals had free access to food (M01-F, Slaccas) and water. The animal facility was maintained under artificial lighting between 7:00 AM and 7:00 PM in a controlled ambient temperature of 22-24° C. and relative humidity between 50-60%.
Compound formulation. The test compounds were prepared in a vehicle of DMSO and HP-β-CD, and administered IP or PO. The test compounds or vehicle were administered at various times (10-20 minutes) before the behavioral test described below. Dosing volume was 10 mL/kg.
Testing procedure. The behavioral testing apparatus was a rectangular black Plexiglas, 2-chambered box, with no top or bottom (50 cm long, 26 cm wide and 15 cm tall) and allowed for the simultaneous testing of 2 mice. The box was placed on a laboratory bench. The chambers of the testing box were cleaned and fresh paper chip bedding was added between tests. Mice were brought to the experiment room in their home cages on the day of testing. Behavioral tests were conducted between 10:00 AM and 1:00 PM in dim light. After drug administration, a mouse was placed into a test chamber and allowed to explore for 10 minutes. After this habituation period, a novel object (e.g., a toy ball of 3 cm in diameter with spikes) was introduced to the center of the chamber for 5 minutes. For the entire 15-minute test period, video was recorded for offline analysis with Any-maze Video Tracking software (Stoelting Co., Wood Dale, Ill.). The total distance traveled during the entire 15 minutes and the number of bouts that each mouse touched the novel object during the last 5 minutes were measured.
Statistical analyses. Data are presented as means and SEMs. Data were analyzed using one-way analysis of variance (ANOVA; Prism, GraphPad Software Inc., San Diego, Calif.), followed by the post-hoc Dunnett's test to compare test compound-treated groups with the vehicle control. A p value<0.05 was considered significant.

[4] = Table 1.1A, read-out: NR2B IC50
[5] = Table 1.3A, read-out: hNR2B IC50
[6] = Table 1.4A, read-out: NR2B IC50
[7] = rat brain NR2B receptors, mean of replicates, read-out: Arithmetic Mean Ki

Chain of hERG channel (Q12809 whole entry): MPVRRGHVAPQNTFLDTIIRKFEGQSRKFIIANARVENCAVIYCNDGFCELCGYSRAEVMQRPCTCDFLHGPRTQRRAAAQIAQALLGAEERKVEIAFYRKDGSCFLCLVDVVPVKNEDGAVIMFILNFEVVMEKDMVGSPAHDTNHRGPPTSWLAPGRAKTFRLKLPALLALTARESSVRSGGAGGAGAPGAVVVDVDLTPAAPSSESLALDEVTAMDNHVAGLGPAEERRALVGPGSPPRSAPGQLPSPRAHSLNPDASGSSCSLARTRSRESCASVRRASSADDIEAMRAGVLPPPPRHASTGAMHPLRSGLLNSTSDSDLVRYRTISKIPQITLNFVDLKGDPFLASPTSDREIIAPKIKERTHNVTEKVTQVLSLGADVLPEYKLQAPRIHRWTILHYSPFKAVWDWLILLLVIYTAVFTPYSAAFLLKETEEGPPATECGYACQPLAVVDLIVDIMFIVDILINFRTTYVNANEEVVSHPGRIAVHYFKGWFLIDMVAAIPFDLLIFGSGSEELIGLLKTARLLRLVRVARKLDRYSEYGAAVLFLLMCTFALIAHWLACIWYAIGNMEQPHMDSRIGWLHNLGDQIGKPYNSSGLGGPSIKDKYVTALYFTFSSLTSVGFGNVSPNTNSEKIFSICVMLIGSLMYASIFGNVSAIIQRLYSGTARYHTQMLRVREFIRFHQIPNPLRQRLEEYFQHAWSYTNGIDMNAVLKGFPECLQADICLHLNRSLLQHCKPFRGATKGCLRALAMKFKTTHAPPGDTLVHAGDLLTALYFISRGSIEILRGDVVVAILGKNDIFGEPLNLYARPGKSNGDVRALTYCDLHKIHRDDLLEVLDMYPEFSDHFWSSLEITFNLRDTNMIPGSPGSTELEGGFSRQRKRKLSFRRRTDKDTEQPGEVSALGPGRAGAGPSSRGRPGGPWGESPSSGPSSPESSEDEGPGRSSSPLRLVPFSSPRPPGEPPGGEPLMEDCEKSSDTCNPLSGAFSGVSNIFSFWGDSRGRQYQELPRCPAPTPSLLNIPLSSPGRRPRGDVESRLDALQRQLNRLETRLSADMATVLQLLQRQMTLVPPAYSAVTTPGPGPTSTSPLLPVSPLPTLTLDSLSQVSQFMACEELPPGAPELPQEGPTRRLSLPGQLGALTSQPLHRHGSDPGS
Chain of native rat brain NR2B receptors (Q00960 27-1482, other chains not shown): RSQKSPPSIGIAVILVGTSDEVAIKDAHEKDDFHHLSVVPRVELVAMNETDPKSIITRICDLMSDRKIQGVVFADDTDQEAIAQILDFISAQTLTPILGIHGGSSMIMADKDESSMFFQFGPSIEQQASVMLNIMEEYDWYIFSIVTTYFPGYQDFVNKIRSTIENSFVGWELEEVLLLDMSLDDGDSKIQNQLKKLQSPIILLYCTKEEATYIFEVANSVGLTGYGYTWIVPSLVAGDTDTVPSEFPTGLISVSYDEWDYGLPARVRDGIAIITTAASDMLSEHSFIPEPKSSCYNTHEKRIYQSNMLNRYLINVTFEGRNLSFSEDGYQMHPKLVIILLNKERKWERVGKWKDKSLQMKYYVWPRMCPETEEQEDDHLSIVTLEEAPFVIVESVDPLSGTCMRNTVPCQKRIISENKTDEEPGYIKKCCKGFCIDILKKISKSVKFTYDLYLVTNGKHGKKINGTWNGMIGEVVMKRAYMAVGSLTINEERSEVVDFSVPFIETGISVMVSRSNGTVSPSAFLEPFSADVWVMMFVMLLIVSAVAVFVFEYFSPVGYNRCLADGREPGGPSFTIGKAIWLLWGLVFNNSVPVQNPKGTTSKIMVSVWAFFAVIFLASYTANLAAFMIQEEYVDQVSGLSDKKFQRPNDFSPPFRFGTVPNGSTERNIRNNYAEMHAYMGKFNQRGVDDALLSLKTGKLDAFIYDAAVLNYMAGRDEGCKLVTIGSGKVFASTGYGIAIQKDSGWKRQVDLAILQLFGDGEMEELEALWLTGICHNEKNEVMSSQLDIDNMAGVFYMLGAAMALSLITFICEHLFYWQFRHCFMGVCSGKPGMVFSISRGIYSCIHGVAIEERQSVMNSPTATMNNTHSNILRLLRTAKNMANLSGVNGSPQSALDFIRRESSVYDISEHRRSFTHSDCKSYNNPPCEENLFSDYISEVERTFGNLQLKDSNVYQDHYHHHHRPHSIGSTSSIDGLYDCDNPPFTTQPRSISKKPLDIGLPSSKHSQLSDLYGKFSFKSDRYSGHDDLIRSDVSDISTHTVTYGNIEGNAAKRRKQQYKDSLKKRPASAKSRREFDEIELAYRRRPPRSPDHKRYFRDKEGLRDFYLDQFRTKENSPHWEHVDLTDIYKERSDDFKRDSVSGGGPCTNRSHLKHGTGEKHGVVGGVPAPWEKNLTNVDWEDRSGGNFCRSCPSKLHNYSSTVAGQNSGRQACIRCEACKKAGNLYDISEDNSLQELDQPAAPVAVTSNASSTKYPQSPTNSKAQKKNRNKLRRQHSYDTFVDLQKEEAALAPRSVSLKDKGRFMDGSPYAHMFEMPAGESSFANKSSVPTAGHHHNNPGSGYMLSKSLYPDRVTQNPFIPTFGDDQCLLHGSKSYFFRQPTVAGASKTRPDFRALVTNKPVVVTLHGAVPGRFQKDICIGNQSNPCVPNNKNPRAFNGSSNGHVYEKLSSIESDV
Chain of human NR1/NR2B (Q13224 27-1484, other chains not shown): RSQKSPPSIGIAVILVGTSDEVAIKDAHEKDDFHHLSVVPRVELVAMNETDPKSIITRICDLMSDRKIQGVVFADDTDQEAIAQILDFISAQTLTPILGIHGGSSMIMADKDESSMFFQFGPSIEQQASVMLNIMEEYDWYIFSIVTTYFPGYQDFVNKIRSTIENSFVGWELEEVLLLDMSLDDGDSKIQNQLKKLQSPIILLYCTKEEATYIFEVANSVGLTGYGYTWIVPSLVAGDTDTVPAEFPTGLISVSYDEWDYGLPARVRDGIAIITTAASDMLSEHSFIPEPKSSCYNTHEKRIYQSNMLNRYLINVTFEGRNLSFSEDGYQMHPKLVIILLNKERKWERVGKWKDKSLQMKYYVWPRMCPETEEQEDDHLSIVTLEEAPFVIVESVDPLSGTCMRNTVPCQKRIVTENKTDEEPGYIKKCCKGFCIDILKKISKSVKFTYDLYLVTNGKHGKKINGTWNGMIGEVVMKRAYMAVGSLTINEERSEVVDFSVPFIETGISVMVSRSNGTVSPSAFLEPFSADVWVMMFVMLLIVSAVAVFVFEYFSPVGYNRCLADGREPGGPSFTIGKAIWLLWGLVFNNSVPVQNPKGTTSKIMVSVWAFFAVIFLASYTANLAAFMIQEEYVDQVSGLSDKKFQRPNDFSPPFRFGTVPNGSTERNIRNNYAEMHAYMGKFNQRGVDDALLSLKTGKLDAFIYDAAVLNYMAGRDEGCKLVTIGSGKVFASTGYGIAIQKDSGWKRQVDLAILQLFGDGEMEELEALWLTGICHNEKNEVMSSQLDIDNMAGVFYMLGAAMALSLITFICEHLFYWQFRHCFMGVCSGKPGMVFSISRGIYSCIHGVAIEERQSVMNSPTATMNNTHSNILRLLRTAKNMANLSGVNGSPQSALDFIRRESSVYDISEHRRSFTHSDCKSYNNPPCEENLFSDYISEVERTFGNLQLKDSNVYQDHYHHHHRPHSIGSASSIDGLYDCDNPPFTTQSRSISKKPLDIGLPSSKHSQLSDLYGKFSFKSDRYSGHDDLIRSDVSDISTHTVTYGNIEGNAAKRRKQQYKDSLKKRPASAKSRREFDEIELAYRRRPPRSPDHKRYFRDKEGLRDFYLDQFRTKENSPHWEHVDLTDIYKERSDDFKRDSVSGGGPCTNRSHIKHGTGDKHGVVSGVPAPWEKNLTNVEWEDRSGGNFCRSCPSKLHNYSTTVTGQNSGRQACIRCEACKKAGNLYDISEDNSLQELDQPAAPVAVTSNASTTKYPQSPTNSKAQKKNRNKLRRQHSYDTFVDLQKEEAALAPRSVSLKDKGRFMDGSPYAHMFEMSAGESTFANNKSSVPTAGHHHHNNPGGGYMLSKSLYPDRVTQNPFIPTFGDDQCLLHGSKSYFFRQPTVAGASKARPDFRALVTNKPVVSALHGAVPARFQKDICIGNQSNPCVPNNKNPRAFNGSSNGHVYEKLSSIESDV
Chain of CYP2D6 (P10635 whole entry): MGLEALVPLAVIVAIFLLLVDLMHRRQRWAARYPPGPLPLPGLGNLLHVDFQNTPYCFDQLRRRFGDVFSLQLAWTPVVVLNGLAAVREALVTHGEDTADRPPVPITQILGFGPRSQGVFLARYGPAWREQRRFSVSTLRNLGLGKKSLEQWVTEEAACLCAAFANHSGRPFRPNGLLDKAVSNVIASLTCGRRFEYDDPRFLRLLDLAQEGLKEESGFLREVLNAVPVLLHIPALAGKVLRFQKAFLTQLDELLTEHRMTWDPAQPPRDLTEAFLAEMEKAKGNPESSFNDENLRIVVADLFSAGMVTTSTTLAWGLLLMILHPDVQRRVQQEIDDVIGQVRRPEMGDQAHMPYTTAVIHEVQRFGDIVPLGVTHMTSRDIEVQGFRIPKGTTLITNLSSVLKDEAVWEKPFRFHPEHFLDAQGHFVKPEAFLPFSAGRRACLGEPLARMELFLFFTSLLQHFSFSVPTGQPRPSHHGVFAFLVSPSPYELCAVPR

- IC50 (human NR1/NR2B; [4]): 30 nM
- IC50 (human NR1/NR2B; [5]): 30 nM
- IC50 (human NR1/NR2B; [6]): 30 nM
- Ki [2, 7]: 15.7 nM
SMILES: FC(F)(F)c1ccc(C(F)(F)CN2CCC(Nc3ncnc4[nH]ccc34)CC2)nc1 [C-5^A′]
- change in vivo at 3 mg/kg [1]: 2%
- change in vivo at 10 mg/kg [1]: -50%
- change in vivo at 30 mg/kg ([1]; 30 mg/kg): -98%
- bouts of nose touching of the novel object, efficacy ([3]; IP (C-11 also PO)): not efficacious
- change in vivo at 10 mg/kg ([3]; Mus musculus, ip, 10 min, IP, 10 mg/kg, pre-test time 10 min, read-out: Percent Change in Novel Object Number of Nose Touches relative to vehicle control): 70.8%
- change in vivo at 30 mg/kg ([3]; Mus musculus, ip, 10 min, IP, pre-test time 10 min, read-out: Percent Change in Novel Object Number of Nose Touches relative to vehicle control): 42.4%
- change in vivo at 60 mg/kg ([3]; Mus musculus, ip, 10 min, IP, 60 mg/kg, pre-test time 10 min, read-out: Percent Change in Novel Object Number of Nose Touches relative to vehicle control): -36.9%

- IC50 (CYP2D6): 18000 nM
SMILES: Cc1ccc(COC(=O)N2CC[C@H](CNc3ccccn3)C(F)(F)C2)cc1 [E1-23.2^B′, (R)-4-methylbenzyl 3,3-difluoro-4-((pyridin-2-ylamino)methyl)piperidine-1-carboxylate]
- IC50 (hERG channel): 5600 nM

- IC50 (human NR1/NR2B; Table 1.1B, read-out: NR2B IC50): 156 nM
- IC50 (human NR1/NR2B; Table 1.3B, read-out: NR2B IC50): 156 nM
- IC50 (human NR1/NR2B; Table 1.4B, read-out: NR2B IC50): 156 nM
- Ki [2, 7]: 84.2 nM
SMILES: Cc1ccc(COC(=O)N2CC[C@@H](CNc3nccn4cnnc34)C(F)(F)C2)cc1 [E2-1.2^B′]
- inhibition at 5 min, 10 µM (hERG channel; human, HEK293 cells stably expressing hERG channel, pH 7.35, 10 μM): 22%

- IC50 (CYP2D6): > 50000 nM
SMILES: O=C(OC1Cc2ccccc2C1)N1CC[C@H](CNc2ncccn2)C(F)(F)C1 [III-E1-22.1^B′, (R)-2,3-dihydro-1H-inden-2-yl 3,3-difluoro-4-((pyrimidin-2-ylamino)methyl)piperidine-1-carboxylate methanesulfonate]
- IC50 (hERG channel): 35000 nM

- IC50 (CYP2D6): 200 nM
SMILES: Cc1ccc(COC(=O)N2CC[C@H](CNc3ccncn3)C(F)(F)C2)cc1 [E1-37.2^B′, (R)-4-methylbenzyl 3,3-difluoro-4-((pyrimidin-4-ylamino)methyl)piperidine-1-carboxylate methanesulfonate]

Continued, compound first:

SMILES: Cc1ccc(COC(=O)N2CC[C@H](CNc3ccncc3)C(F)(F)C2)cc1 [E1-38.2^B′, (R)-4-methylbenzyl 3,3-difluoro-4-((pyridin-4-ylamino)methyl)piperidine-1-carboxylate methanesulfonate]
- IC50 (hERG channel): 2900 nM
- IC50 (CYP2D6): 1490 nM
- change in vivo at 0.3 mg/kg ([1]; 0.3 mg/kg): 4%
- change in vivo at 1 mg/kg [1]: -18%
- change in vivo at 3 mg/kg [1]: -76%

SMILES: Cc1ccc(COC(=O)N2CC[C@H](CNc3ncc(C)cn3)C(F)(F)C2)cc1 [E1-22.26^B′, (R)-4-methylbenzyl 3,3-difluoro-4-(((5-methylpyrimidin-2-yl)amino)methyl)piperidine-1-carboxylate mesylate]
- Ki [2, 7]: 3.4 nM
- change in vivo at 1 mg/kg [1]: -12%
- change in vivo at 3 mg/kg [1]: -23%
- change in vivo at 10 mg/kg [1]: -96%

SMILES: O=C(OCc1ccc(F)cc1)N1CC[C@H](CNc2cccnn2)C(F)(F)C1 [E1-24.4^B′, (R)-4-fluorobenzyl 3,3-difluoro-4-((pyridazin-3-ylamino)methyl)piperidine-1-carboxylate methanesulfonate]
- Ki [2, 7]: 10 nM

SMILES: COc1ccccc1CNC(=N)/C=C/c1ccccc1 [(E)-N1-(2-methoxybenzyl)-cinnamidine, reference compound]
- Ki ([2]; high affinity site, rat brain membranes, read-out: inhibition constant (Ki), mean): 0.22 nM

SMILES: FC(F)(F)c1ccc(C(F)(F)CN2CCC(Nc3ncnc4[nH]ccc34)CC2)cn1 [C-127^A′]
- IC50 (human NR1/NR2B; [4]): 45 nM
- IC50 (human NR1/NR2B; [5]): 45 nM
- IC50 (human NR1/NR2B; [6]): 45 nM
- Ki [2, 7]: 31.6 nM
- change in vivo at 1 mg/kg [1]: 15%
- change in vivo at 3 mg/kg [1]: -27%
- change in vivo at 10 mg/kg [1]: -98%
- change in vivo at 20 mg/kg ([3]; Mus musculus, ip, 0.25 h, IP, 20 mg/kg, pre-test time 15 min, read-out: Percent Change in Novel Object Number of Nose Touches relative to vehicle control): 120%
- change in vivo at 30 mg/kg ([3]; Mus musculus, ip, 0.25 h, IP, pre-test time 15 min, read-out: Percent Change in Novel Object Number of Nose Touches relative to vehicle control): 160%
- pattern of the dose-response function for bouts of nose touching ([3]; mouse, in vivo): dose-dependent increases

SMILES: O=C(OCc1ccc(F)cc1)N1CC[C@H](CNc2ccncc2F)C(F)(F)C1 [E1-38.10^B′, (R)-4-fluorobenzyl 3,3-difluoro-4-(((3-fluoropyridin-4-yl)amino)methyl)piperidine-1-carboxylate mesylate]
- Ki [2, 7]: 3.8 nM

SMILES: Cc1cnc(NC[C@H]2CCN(C(=O)OCc3ccc(Cl)cc3)CC2(F)F)cn1 [E1-21.33^B′, (R)-4-chlorobenzyl 3,3-difluoro-4-(((5-methylpyrazin-2-yl)amino)methyl)piperidine-1-carboxylate mesylate]
- Ki [2, 7]: 11 nM

SMILES: Cc1ccc(COC(=O)N2CC[C@H](CNc3cnc(C#N)cn3)C(F)(F)C2)cc1 [E1-21.30^B′, (R)-4-methylbenzyl 4-(((5-cyanopyrazin-2-yl)amino)methyl)-3,3-difluoropiperidine-1-carboxylate]
- Ki [2, 7]: 31 nM
